Experimental findings from patent US4207330A, “Method for treating hyperglycemia in mammals using arylamino benzoic acids” (The Dow Chemical Company, priority 1979, dated 1980) are described below.

Where two headings read alike, the source gives them in different places.

The subject of the assay is serum glucose. The assay can be described thus: Hypoglycemic activity in alanine-induced mice (percent lowering of serum glucose; ED50). It is filed as in vivo, male Swiss-Webster mice. The note with it: for inhibition in vivo at 60 mg/kg / ED50: Mus musculus, ip, 1 h; for inhibition in vivo at 60 mg/kg: 60 mg/kg intraperitoneal, 15 min before 10 mmol/kg L-alanine i.p., serum glucose 60 min after compound, 100% = lowering from alanine-induced level to fasted control level, read-out: % Lowering Blood Sugar; for ED50: read-out: ED50 (amount required to obtain a 50% reduction in serum glucose as compared to the control animals). The procedure: Alanine is the most glucogenic of the amino acids and also stimulates gluconeogensis in normal animals. Animals suffering from diabetes show an exaggerated hyperglycemic response to a protein or amino acid meal, therefore the hyperglycemic state induced by alanine closely parallels the response of a diabetic mammal.
Fifteen minutes later the same mice were injected intrapertioneally with 10 m moles/kg body weight of L-alanine. Sixty minutes after injection of the active compound, the animals were sacrificed and their sera were analyzed for glucose. The control consisted of both fasted mice and mice injected with alanine. The results are expressed as percent lowering of serum glucose from the alanine induced hyperglycemic level to the fasted control glucose level, i.e. lowering to the fasting glucose level is 100% lowering.
The effective dose (ED50) of several of the subject compounds were determined.
*effective dose represents the amount of the active ingredient required t
obtain a 50% reduction in serum glucose as compared to the control

The mark [1] stands for this setting: 50% reduction in serum glucose vs control animals.

`O=C(O)c1ccc(NCc2ccc(Cl)cc2)cc1` [Example 3, 4-(((4-chlorophenyl)methyl)amino)benzoic acid]: the inhibition in vivo at 60 mg/kg is 111%. Moreover, the ED50 (in general, the dose at which the effect has come halfway, by size or by number of responders) under setting [1] worked out at 11 mg/kg.
For `O=C(O)c1ccc(NCc2cc(Cl)c(Cl)s2)cc1` [Example 14, 4-(((4,5-dichloro-2-thienyl)methyl)amino)benzoic acid], the inhibition in vivo at 60 mg/kg was 83%.
As to `O=C(O)c1ccc(NCc2cccs2)cc1` [Example 8, 4-((2-thienylmethyl)amino)benzoic acid], the inhibition in vivo at 60 mg/kg was 51%.
The same measure, in the same setting: then `CCOC(=O)c1ccc(NCc2cccs2)cc1` [Example 7, 4-((2-thienylmethyl)amino)benzoic acid ethyl ester], with 78%.
Turning to `O=C(O)c1ccc(NCc2ccc(Br)s2)cc1` [Example 15, 4-(((5-bromo-2-thienyl)methyl)amino)benzoic acid], the inhibition in vivo at 60 mg/kg was found to be 210%. Under setting [1], the ED50 was determined as 4.6 mg/kg. The “hypoglycemic activity at low dosage (in words)” value (mice, dosages as low as 7.5 mg per kg of body weight) is on record as “significant hypoglycemic activity”. Under “mice, compounds tested”, the “hypoglycemic activity (in words)” value was “highest activity as a hypoglycemic agent of the compounds tested”.
On to `O=C(O)c1ccc(NCc2ccc(C(F)(F)F)cc2)cc1` [Example 11, 4-(((4-(trifluoromethyl)phenyl)methyl)amino)benzoic], for which the inhibition in vivo at 60 mg/kg came to 106%.
`O=C(O)c1ccc(NCc2cccc(F)c2)cc1` [Example 13, 4-(((3-fluorophenyl)methyl)amino)benzoic acid]: the inhibition in vivo at 60 mg/kg was 52%.
`Cc1ccc(CNc2ccc(C(=O)O)cc2)cc1` [Example 4, 4-(((4-methylphenyl)methyl)amino)benzoic acid]: the inhibition in vivo at 60 mg/kg was 144%. The 50% effective dose (ED50) under setting [1] turned out to be 15 mg/kg.
In the case of `O=C(O)c1ccc(NCCCc2ccccc2)cc1` [Example 10, 4-((3-phenylpropyl)amino)benzoic acid], the inhibition in vivo at 60 mg/kg amounted to 99%.
For `O=C(O)c1ccc(Nc2ccccc2)cc1` [Example 1, p-anilinobenzoic acid], the inhibition in vivo at 60 mg/kg amounted to 88%.
In the case of `O=C(O)c1ccc(NCc2ccc(Cl)cc2)cc1.[Na]` [Example 12, 4-(((4-chlorophenyl)methyl)amino)benzoic acid sodium], the ED50 was determined as 6 mg/kg.
With `O=C(O)c1ccc(NCc2cccc(Cl)c2)cc1` [Example 9, 4-(((3-chlorophenyl)methyl)amino)benzoic acid], the inhibition in vivo at 60 mg/kg came out at 64%.
For `O=C(O)c1ccc(NCc2ccc(F)cc2)cc1` [Example 6, 4-(((4-fluorophenyl)methyl)amino)benzoic acid], the inhibition in vivo at 60 mg/kg amounted to 110%.
The same measure, in the same setting: then `CC(C)c1ccc(CNc2ccc(C(=O)O)cc2)cc1` [Example 2, 4-(((4-(1-methylethyl)phenyl)methyl)amino)benzoic acid], with 78%.
As for `CCc1ccc(CNc2ccc(C(=O)O)cc2)cc1` [Example 5, 4-(((4-ethylphenyl)methyl)amino)benzoic acid], the inhibition in vivo at 60 mg/kg was found to be 96%. Further, under setting [1], the median effective dose (ED50) was 15 mg/kg.
